In US10780074B2, “Compounds and uses thereof” (Sunovion Pharmaceuticals Inc., priority 2017, dated 2020):
Structures can show the parent of a compound that is named as a salt. Where two headings read alike, the source gives them in different places.

Test system: behaviors of compound-treated mice
Assay: Neuropharmacological Assay (SmartCube)
Type: in vivo
Conditions: for minimal effective dose: Mus musculus, ip, 0.25 h, dose having 50% or more total activity in SmartCube, read-out: MED (minimal effective dose)
Summary of the method: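 Mice dosed i.p. 15 min before testing, with compound in N-methyl-2-pyrrolidone/PEG/propylene glycol, were video-recorded and algorithmically compared with reference-drug behavioral signatures. This gave class-match probabilities (antidepressant, anxiolytic, etc.) at the most efficacious of 3 doses. MED was defined as the dose with ≥50% total activity, usually tested across 0.3–30 mpk.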

[1] = i.p. 15 min before behavioral test, most efficacious dose(s) of 3 doses
[2] = SmartCube, i.p. 15 min before test, most efficacious dose(s)

Row | Compound | minimal effective dose (i.p.) [mg/kg] | AD: ADHD (probability that activity matches class) [1] | AG: analgesic (probability that activity matches class) [1] | AX: anxiolytic (probability that activity matches class) [1] | CE: cognitive enhancer (probability that activity matches class) [1] | DP: anti-depressant (probability that activity matches class) [1] | MS: mood stabilizer (probability that activity matches class) [1] | PS: anti-psychotic (probability that activity matches class) [1] | SD: sedative hypnotic (probability that activity matches class) [1] | UN: uncharacterized CNS activity (probability that activity matches class) [1] | minimal effective dose [mg/kg] | AD: ADHD (probability that activity matches class) [2] | AG: analgesic (probability that activity matches class) [2] | AX: anxiolytic (probability that activity matches class) [2] | CE: cognitive enhancer (probability that activity matches class) [2] | DP: anti-depressant (probability that activity matches class) [2] | MS: mood stabilizer (probability that activity matches class) [2] | PS: anti-psychotic (probability that activity matches class) [2] | SD: sedative hypnotic (probability that activity matches class) [2] | UN: uncharacterized CNS activity (probability that activity matches class) [2]
1 | NC[C@@H]1OCc2c(-c3ccccn3)cccc21 (single isomer, unassigned) [Compound 41] | 10 to 30 | + (LOQ ≤ + <5%) | + (LOQ ≤ + <5%) | ++ (5% ≤ ++ <25%) | ++ (5% ≤ ++ <25%) | ++ (5% ≤ ++ <25%) | + (LOQ ≤ + <5%) | + (LOQ ≤ + <5%) | ++ (5% ≤ ++ <25%) | ++++ (50% ≤ ++++) | – | – | – | – | – | – | – | – | – | –
2 | CNC[C@@H]1OCCc2ccc(-c3cccnc3)cc21 (single isomer, unassigned) [Compound 3, dihydrochloride] | 3 to 10 | + (LOQ ≤ + <5%) | ++ (5% ≤ ++ <25%) | ++ (5% ≤ ++ <25%) | ++ (5% ≤ ++ <25%) | ++ (5% ≤ ++ <25%) | ++ (5% ≤ ++ <25%) | ++ (5% ≤ ++ <25%) | + (LOQ ≤ + <5%) | ++ (5% ≤ ++ <25%) | – | – | – | – | – | – | – | – | – | –
3 | NC[C@H]1OCc2c(-c3ccncc3)cccc21 (single isomer, unassigned) [Compound 38, hydrochloride salt] | ≤ 3 | ++ (5% ≤ ++ <25%) | ++ (5% ≤ ++ <25%) | +++ (25% ≤ +++ <50%) | + (LOQ ≤ + <5%) | ++++ (50% ≤ ++++) | + (LOQ ≤ + <5%) | + (LOQ ≤ + <5%) | ++ (5% ≤ ++ <25%) | ++ (5% ≤ ++ <25%) | – | – | – | – | – | – | – | – | – | –
4 | CNC[C@@H]1OCCc2c1cccc2-n1cccn1 [Compound 186, (R)-1-(5-(1H-pyrazol-1-yl)isochroman-1-yl)-N-methylmethanamine] | – | – | – | – | – | – | – | – | – | – | 10 to 30 | + (LOQ ≤ + <5%) | + (LOQ ≤ + <5%) | ++ (5% ≤ ++ <25%) | + (LOQ ≤ + <5%) | + (LOQ ≤ + <5%) | + (LOQ ≤ + <5%) | + (LOQ ≤ + <5%) | + (LOQ ≤ + <5%) | + (LOQ ≤ + <5%)
5 | NC[C@H]1OCCc2c(-c3cncs3)cccc21 (single isomer, unassigned) [Compound 71, hydrochloride salt] | ≤ 3 | +++ (25% ≤ +++ <50%) | + (LOQ ≤ + <5%) | ++ (5% ≤ ++ <25%) | + (LOQ ≤ + <5%) | ++ (5% ≤ ++ <25%) | + (LOQ ≤ + <5%) | + (LOQ ≤ + <5%) | ++ (5% ≤ ++ <25%) | ++++ (50% ≤ ++++) | – | – | – | – | – | – | – | – | – | –
6 | CNC[C@H]1OCCc2cc(-c3cccnn3)ccc21 (single isomer, unassigned) [Compound 32, hydrochloride] | > 30 | + (LOQ ≤ + <5%) | + (LOQ ≤ + <5%) | + (LOQ ≤ + <5%) | + (LOQ ≤ + <5%) | + (LOQ ≤ + <5%) | + (LOQ ≤ + <5%) | + (LOQ ≤ + <5%) | + (LOQ ≤ + <5%) | + (LOQ ≤ + <5%) | – | – | – | – | – | – | – | – | – | –
7 | CNC[C@@H]1OCCCc2c(-c3ccncc3)cccc21 (single isomer, unassigned) [Compound 148] | 10 to 30 | + (LOQ ≤ + <5%) | + (LOQ ≤ + <5%) | ++ (5% ≤ ++ <25%) | + (LOQ ≤ + <5%) | + (LOQ ≤ + <5%) | + (LOQ ≤ + <5%) | + (LOQ ≤ + <5%) | + (LOQ ≤ + <5%) | + (LOQ ≤ + <5%) | – | – | – | – | – | – | – | – | – | –
8 | NC[C@H]1OCCc2c(-c3cncnc3)cccc21 (single isomer, unassigned) [Compound 28, hydrochloride salt] | 3 to 10 | ++ (5% ≤ ++ <25%) | ++ (5% ≤ ++ <25%) | ++ (5% ≤ ++ <25%) | ++ (5% ≤ ++ <25%) | +++ (25% ≤ +++ <50%) | + (LOQ ≤ + <5%) | ++ (5% ≤ ++ <25%) | + (LOQ ≤ + <5%) | ++ (5% ≤ ++ <25%) | – | – | – | – | – | – | – | – | – | –
9 | CNC[C@H]1OCCc2ccc(-c3ccncc3)cc21 [Compound 50, (S)—N-Methyl-1-(7-(pyridin-4-yl)isochroman-1-yl)methanamine hydrochloride] | 3 to 10 | + (LOQ ≤ + <5%) | + (LOQ ≤ + <5%) | ++ (5% ≤ ++ <25%) | ++ (5% ≤ ++ <25%) | ++ (5% ≤ ++ <25%) | + (LOQ ≤ + <5%) | + (LOQ ≤ + <5%) | + (LOQ ≤ + <5%) | ++++ (50% ≤ ++++) | – | – | – | – | – | – | – | – | – | –
10 | CNCC1OCCc2c(-c3ccncn3)cccc21 (centres unmarked) [Compound 53, N-Methyl-1-(5-(pyrimidin-4-yl)isochroman-1-yl)methanamine hydrochloride salt] | 3 to 10 | ++ (5% ≤ ++ <25%) | + (LOQ ≤ + <5%) | ++ (5% ≤ ++ <25%) | + (LOQ ≤ + <5%) | ++++ (50% ≤ ++++) | + (LOQ ≤ + <5%) | + (LOQ ≤ + <5%) | + (LOQ ≤ + <5%) | + (LOQ ≤ + <5%) | – | – | – | – | – | – | – | – | – | –
11 | NC[C@H]1OCCCc2c(-c3cncs3)cccc21 (single isomer, unassigned) [Compound 171, hydrochloride salt] | 10 to 30 | + (LOQ ≤ + <5%) | + (LOQ ≤ + <5%) | + (LOQ ≤ + <5%) | + (LOQ ≤ + <5%) | + (LOQ ≤ + <5%) | + (LOQ ≤ + <5%) | + (LOQ ≤ + <5%) | + (LOQ ≤ + <5%) | + (LOQ ≤ + <5%) | – | – | – | – | – | – | – | – | – | –
